Assay results: patent US20120270928A1, “MICRORNA COMPOUNDS AND METHODS FOR MODULATING MIR-21 ACTIVITY” (REGULUS THERAPEUTICS INC., priority 2011, published 2012)
Values joined by “and” are separate entries in the source; they are usually repeats but may differ in a detail not shown here. Identical values can stand only once.

Columns and labels:
[1] = tested on: UUO model of kidney fibrosis; assay: Unilateral ureteral obstruction (UUO) model of kidney fibrosis: kidney collagen 1A1 and collagen 3A1 expression by real-time PCR; format: in vivo, mice; conditions: UUO
Experimental: Unilateral ureteral obstruction (UUO) is a well-established experimental model of renal injury leading to interstitial fibrosis, and thus is used as an experimental model that is reflective of human kidney disease. UUO is induced by surgically ligating a single ureter. As fibrosis is characterized by an increase in collagen, the presence and extent of kidney fibrosis may be determined by measuring collagen content. Both collagen 1A1 (Col 1A1) and collagen 3A1 (Col 3A1) are measured to assess collagen content. Kidney fibrosis may be visualized by staining tissue samples with picro-sirius red to detect increases in collagen content. Kidney fibrosis may also be observed by measuring the amount of hydroxyproline, which is a major component of collagen, in a sample.
The cEt-containing anti-miR-21 compounds found to be active in the luciferase assay were tested in the UUO model of kidney fibrosis. 25919 comprising 2′-MOE and 2′-fluoro modifications is known to inhibit miR-21 activity in vivo and was included as a positive control. Groups of 8 animals each were treated as follows: UUO only, UUO with PBS, or UUO with anti-miR-21 compound. Relative to the day of the UUO procedure, PBS or anti-miR-21 compound was administered at days −3, −1, and +5. Anti-miR-21 compounds were administered at a dose of 20 mg/kg. As the anti-miR compounds were administered prior to the UUO procedure, this dosing regimen is considered a prophylactic treatment. At day 11, animals were sacrificed and kidney was isolated for measurement of collagen expression. Collagen expression was measured by real-time PCR and normalized first to GAPDH and then to the sham control animals.
The UUO study was repeated to confirm the activity of 25070. The anti-miR was administered subcutaneously at a dose of 20 mg/kg.
(§1) Control treatment groups included UUO only (sham) and UUO with PBS administered subcutaneously. An additional control group included UUO with Tween-MC/20 carrier perorally. 25070 administered subcutaneously at dose of 20 mg/kg at 5 days prior to, 2 days prior to, and 3 days after, the UUO procedure. Irbesartan was administered perorally on daily on days 0 through 7 following the UUO procedure. Animals were sacrificed on Day 10 following the UUO procedure. Kidney tissue was collected for measurement of collagen 1A1 and collagen 3A1 expression.
Compounds 25220 and 25221, as well as 25923, were tested in the UUO model for their effects on fibrosis. Groups of 8 animals each were treated as follows: sham surgery, UUO with PBS, UUO with 25220, UUO with 25221, or UUO with 25923. Relative to the day of the UUO procedure, PBS or anti-miR-21 compound was administered at days −5, −3, and +3. Anti-miR-21 compounds were administered at a dose of 20 mg/kg. As the anti-miR compounds were administered prior to the UUO procedure, this dosing regimen is considered a prophylactic treatment. At day 10, animals were sacrificed and kidney was isolated for measurement of collagen expression. Collagen expression was measured by real-time PCR and normalized to GAPDH.

[2] = tested on: UUO model of kidney fibrosis; assay: UUO model: collagen area fraction of kidney tissue (picrosirius red histology); format: in vivo, mice; conditions: Table N, 25070 20 mg/kg s.c.
Experimental: as §1
The ‘collagen area fraction’ is measured histologically through quantitative image processing of the area of kidney tissue that is stained red by the picrosirius red stain; the percent detected as red is normalized by the area of kidney section.

miR-21 = miR-21 luciferase sensor assay in Hela cells; format: cell-based
Experimental: The compounds were assessed for miR-21 inhibitory activity in a luciferase assay. A microRNA luciferase sensor construct was engineered using pGL3-MCS2 (Promega). The construct was introduced into Hela cells to test the ability of anti-miR compounds to inhibit activity of miR-21. In this assay, miR-21 present in the Hela cells binds to its cognate site(s) in the luciferase sensor construct, and suppresses luciferase expression. When the appropriate anti-miR is introduced into the cells, it binds to miR-21 and relieves suppression of luciferase expression. Thus, in this assay anti-miRs that are effective inhibitors of miR-21 expression will cause an increase in luciferase expression.
Hela cells (ATCC), stably transfected with a luciferase construct engineered to contain a sequence complementary of miR-21, were seeded in T-170 flasks (BD Falcon) at 3.5*10^6 cells/flask. Hela cells were grown in Dulbecco's Modified Eagle Medium with High Glucose (Invitrogen).
Each flask of Hela cells was transfected with 0.5 ug of a phRL sensor plasmid (Promega) expressing Renilla to be used in normalization. Hela cells were transfected using 20 ul Lipofectamine 2000/flask (Invitrogen). After 4 hours of transfection, cells were washed with PBS and trypsinized Hela cells were plated at 40 k/well in 24 well plates (BD Falcon) and left overnight.
Hela cells were transfected with anti-miRs using Lipofectin (Invitrogen) at 2.5 ul Lipofectin/100 nM ASO/ml Opti-MEM I Reduced Serum Medium (Invitrogen) for 4 hours. After ASO transfection, Hela cells were refed with Dulbecco's Modified Eagle Medium with High Glucose (Invitrogen).
Hela cells are passively lysed and luciferase activity measured using the Dual-Luciferase Reporter Assay System (Promega).
The luciferase assay was performed to test the ability of anti-miRs with the nucleoside patterns described herein to inhibit the activity of miR-21. Results were compared to a ‘mock’ treatment, in which cells received no anti-miR treatment. The experiment was repeated and results of two experimental replicates are shown in the following Table B, as the luciferase value normalized to beta-galactosidase activity.
The luciferase assay was performed as described herein to test the ability of anti-miRs in Table F to inhibit the activity of miR-21. Results were compared to a ‘mock’ treatment, in which cells received no anti-miR treatment. The experiment was repeated and results of two experimental replicates are shown in the following Table D, as fold change in luciferase value relative to the mock treatment.

[3] = tested on: ischemia reperfusion injury/nephrectomy (IR/Nx) model; assay: Ischemia reperfusion injury/nephrectomy (IR/Nx) model: urinary albumin to creatinine ratio; format: in vivo, mouse
Source text: An ischemia reperfusion injury/nephrectomy (IR/Nx) model is created in the mouse through temporary unilateral clamping of an artery in one kidney, which leads to tubule damage, inflammation, and fibrosis, followed by removal of the second kidney at a later timepoint. In this model, the acute kidney dysfunction phase is useful to test candidate agents for the treatment of acute kidney injury (i.e. up to about the first 5 days), and the later phases of kidney dysfunction are useful to model chronic fibrosis (i.e. after about the first 5 days).
Unilateral IR was induced for a period of 30 minutes. Treatment groups were as follows: sham IR procedure; IR with PBS administered subcutaneously; IR with mismatched control 25109 administered subcutaneously at a dose of 20 mg/kg; IR with anti-miR-21 compound 25070 administered subcutaneously at a dose of 20 mg/kg; and IR with anti-miR-21 compound 25923 administered subcutaneously at a dose of 20 mg/kg. PBS or anti-miR was administered on days 2, 3, 4, and 8 following IR. On day 8, the healthy kidney was removed by nephrectomy from each animal, and animals were sacrificed on day 9. Just prior to sacrifice, urine was collected by direct bladder puncture.
Urinary albumin to creatinine ratio was measured in the urine from each mouse. […] The geometric mean of the albumin to creatinine ratio in each group of mice was 16 μgAlb/mgCr (nephrectomy-only control), 127 μgAlb/mgCr (IR/Nx, PBS control), 140 μgAlb/mgCr (IR/Nx, 25109 control), 40 μgAlb/mgCr (IR/Nx, 25070), and 31 μgAlb/mgCr (IR/Nx, 25923). Blood urea nitrogen and serum creatinine levels were similar across all IR/Nx mice, and were elevated relative to nephrectomy-only control mice (data not shown).

[4] = Table M, individual animals, 25070 20 mg/kg s.c. 5 and 2 days prior to and 3 days after UUO, irbesartan PO daily days 0-7, sacrifice Day 10, 20 mg/kg
[5] = 20 mg/kg at days -5, -3, +3, kidney at day 10

| Compound | Collagen 3A1 (Normalized Expression) Mean ([1]; Table M, group mean, 25070 20 mg/kg s.c., irbesartan PO daily days 0-7, Day 10, UUO-PBS 93.2, Tween/MC vehicle 132.4) | Collagen 1A1 (Normalized Expression) Mean ([1]; Table M, group mean, 25070 20 mg/kg s.c., irbesartan PO daily days 0-7, Day 10, UUO-PBS 129.6, Tween/MC vehicle 150.2) | Collagen 1A1 (Normalized Expression) [1, 4] | Collagen 3A1 (Normalized Expression) [1, 4] | reduction in Col3a1 expression (significance) ([1]; comparison with irbesartan, sacrifice Day 10) | reduction in Col1A1 expression relative to saline-treated animals (significance) ([1]; comparison with irbesartan, sacrifice Day 10, p<0.05 by one-way ANOVA) | Collagen Area Fraction (%) Mean ([2]; group mean, irbesartan PO, Day 10, UUO-PBS 11.1, Tween/MC vehicle 8.0) [%] | Collagen Area Fraction (%) ([2]; individual animals, irbesartan PO daily days 0-7, Day 10, picrosirius red, 20 mg/kg) | inhibition of miR-21 activity in the luciferase assay (in words) (miR-21; Hela cells) | fold change in luciferase value relative to the mock treatment (miR-21; concentration of anti-miR compound 0.2 (unit not given)) [fold change] | fold change in luciferase value relative to the mock treatment (miR-21; concentration of anti-miR compound 0.6 (unit not given)) [fold change] | fold change in luciferase value relative to the mock treatment (miR-21; concentration of anti-miR compound 1.9 (unit not given)) [fold change] | fold change in luciferase value relative to the mock treatment (miR-21; concentration of anti-miR compound 5.6 (unit not given)) [fold change] | fold change in luciferase value relative to the mock treatment (miR-21; concentration of anti-miR compound 16.7 (unit not given)) [fold change] | fold change in luciferase value relative to the mock treatment (miR-21; concentration of anti-miR compound 50.0 (unit not given)) [fold change] | collagen 1A1 expression (FIG. 2A, in words) [1, 5] | collagen 3A1 expression (FIG. 2B, in words) [1, 5] | reduction in urinary albumin to creatinine ratio (significance) ([3]; 20 mg/kg subcutaneously on days 2, 3, 4, and 8) | geometric mean of the urinary albumin to creatinine ratio ([3]; 20 mg/kg subcutaneously on days 2, 3, 4, and 8, urine on day 9) [μgAlb/mgCr] |
| --- | --- | --- | --- | --- | --- | --- | --- | --- | --- | --- | --- | --- | --- | --- | --- | --- | --- | --- | --- |
| CCCCC1=NC2(CCCC2)C(=O)N1Cc1ccc(-c2ccccc2-c2nnn[nH]2)cc1 [irbesartan, reference compound] | 73.2 | 117.8 | 125.4 and 86.7 and 106.6 and 110.7 and 198.3 and 92.2 and 118.1 and 104.1 | 65.5 and 63.8 and 63.2 and 50.8 and 63.6 and 82.8 and 122.5 | statistically significant reductions | did not yield a statistically significant reduction | 8.0 | 6.105% and 7.481% and 15.877% and 7.914% and 6.614% and 5.706% and 7.798% and 6.154% | – | – | – | – | – | – | – | – | – | – | – |
| AECSATCSAGTCSTGAUSAAGCSTAS (antisense ACATCAGTCTGATAAGCTA; cEt and 2'-MOE nucleosides, code letters not given here, further chemistry not given here) [Compound 25923, variation of 25070: 3′-terminal nucleoside is a cEt nucleoside rather than 2′-MOE nucleoside] | – | – | – | – | – | – | – | – | inhibition of miR-21 in a dose-dependent manner | 1.06 | 1.01 | 1.10 | 5.18 | 11.34 | 10.81 | reduced collagen 1A1 and collagen 3A1 expression by a stastically significant amount | reduced collagen 1A1 and collagen 3A1 expression by a stastically significant amount | statistically significant reductions | 31 |
